Data from patent publication US20140256555A1, “METHODS FOR TREATING FLOWERING PLANTS WITH RIBOSE” (RiboCor, Inc., priority 2013, published 2014).

Columns and labels:
Snake Plant = experiment: Watering with D-ribose solution, blooming of Snake Plant; format: in vivo, Mother's-in-law Tongue/Snake Plant; conditions: had not bloomed in over 15 years, indoor plant; 5 grams of D-ribose to one gallon of water
Description: (§1) Plants treated with a solution of D-ribose in this example included Orchids, Christmas Cactus, Palm, Mother's-in-law Tongue/Snake Plant, Rosemary, Bamboo, Pothos, Hibiscus, Jade, Purple Passion, Aloe vera, Schefflera, Cacti, and Norfolk Island Pine.
(§2) The use of MIRACLE-GRO liquid plant food was stopped, then the use of a solution of D-ribose to treat the plants was started. Each week a fresh solution of D-ribose was made using 5 grams of D-ribose to one gallon of water.
This is another example of plant typically regarded as a non-flowering type plant. […] It had not bloomed in over 15 years. While flowers on this plant are not unheard of, it is uncommon to bloom in the Minnesota climate and as an indoor plant.

flowering plants = experiment: Watering of house plants with D-ribose solution, observation of blooming; format: in vivo; conditions: 5 grams of D-ribose to one gallon of water, after MIRACLE-GRO was stopped
Description: as §1, §2
Specific observations are noted below. While all the plants were extremely healthy and grew exceptionally well, traditional flowering varieties performed amazingly well.

Hibiscus = experiment: Watering with D-ribose solution, blooming of Hibiscus; format: in vivo; conditions: indoors for the winter months; 5 grams of D-ribose to one gallon of water
Description: as §1, §2
This plant was taken inside in October for the winter months.

Christmas Cactus = experiment: Watering with D-ribose solution, blooming of Christmas Cactus; format: in vivo; conditions: typically blooms only around Christmas and Easter; 5 grams of D-ribose to one gallon of water
Description: as §1, §2
This variety of plant typically only blooms around the Christmas and Easter holidays each year for a few weeks up to a month or so, then it stops blooming.

Palm = experiment: Watering with D-ribose solution, blooming of Palm; format: in vivo; conditions: plant had not bloomed in approximately fifteen years; 5 grams of D-ribose to one gallon of water
Description: as §1, §2
This is typically regarded as a non-flowering type of plant. This plant had not bloomed in approximately fifteen years.

Orchids = experiment: Watering with D-ribose solution, blooming of orchids; format: in vivo; conditions: 5 grams of D-ribose to one gallon of water
Description: as §1, §2
The first subject was an orchid which had not bloomed in six plus years.

Purple Waffle = experiment: Growth of Purple Waffle plants over a 9 month period with weekly feeding; format: in vivo; conditions: 1× (1.5 mg/ml) or 2× (3 mg/ml) D-ribose weekly, versus control and MIRACLE-GRO fed plant
Description: The growth of four plants was observed over a 9 month period. One plant was not fed (control), but watered weekly. One plant was fed MIRACLE-GRO liquid plant food weekly based on product instructions of feeding every time you water by squeezing 10-20 drops into 1 quart of water. One plant was fed 1× (1.5 mg/ml) D-ribose weekly. One plant was fed 2× (3 mg/ml) D-ribose weekly.

Structure (SMILES): O=C[C@H](O)[C@H](O)[C@H](O)CO [D-ribose]
- blooming / flowering growth (Snake Plant): grew unusual growths that appeared to be some type of flowering appendage
- blooming observed in treated plants (flowering plants): Sustained blooming in many of the flowering plants
- blooming (Hibiscus): continuously bloomed
- blooming (Christmas Cactus): started to bloom early and sustained an abundance of continued blooms
- blooming / flowering growth (Palm): grew an unusual type of growth that appeared to be a flowering/seed mechanism on two different stems
- blooming, first orchid (Orchids; orchid which had not bloomed in six plus years): sparked two new stems full of blooms
- blooming, second orchid (Orchids; orchid which had not bloomed in three plus years): showed the same results as subject one
- branching (Purple Waffle): increased branching compared to both the control and the MIRACLE-GRO fed plant
